Data published in patent publication US4508663A, “Process for preparing thiosulfenamide derivatives of N-phosphonomethylglycinonitriles” (Monsanto Company, priority 1983, dated 1985).

Experiments:
Assay in all cases: post-emergence herbicidal activity, greenhouse
Type in all cases: in vivo
Velvetleaf = tested on: Velvetleaf
Procedure, shortened: (§1)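 Plants grown from seed or perennial propagules in greenhouse soil pans were sprayed at two to three weeks with compound solution or suspension containing about 0.4% emulsifier, at the stated application rates. Injury relative to untreated controls was scored at approximately two and four weeks after treatment on a post-emergence activity index.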

Johnsongrass = conditions: Table I, 4 WAT
Procedure, shortened: as §1

Barnyardgrass = tested on: Barnyardgrass
Procedure, shortened: as §1

Quackgrass = conditions: Table I, 4 WAT
Procedure, shortened: as §1

Canada Thistle = conditions: Table I, 4 WAT
Procedure, shortened: as §1

Morningglory = tested on: Morningglory
Procedure, shortened: as §1

Downy Brome = tested on: Downy Brome
Procedure, shortened: as §1

Lambsquarters = tested on: Lambsquarters
Procedure, shortened: as §1

Yellow Nutsedge = conditions: Table I, 4 WAT
Procedure, shortened: as §1

Cocklebur = tested on: Cocklebur
Procedure, shortened: as §1

Smartweed = tested on: Smartweed
Procedure, shortened: as §1

Hemp Sesbania = conditions: Table II, 2 WAT
Procedure, shortened: as §1

Soybean = conditions: Table II, 2 WAT
Procedure, shortened: as §1

Wheat = conditions: Table II, 2 WAT
Procedure, shortened: as §1

Sorghum = conditions: Table II, 2 WAT
Procedure, shortened: as §1

Crabgrass = conditions: Table II, 2 WAT
Procedure, shortened: as §1

Panicum Spp = conditions: Table II, 2 WAT
Procedure, shortened: as §1

Rice = conditions: Table II, 2 WAT
Procedure, shortened: as §1

Wild Buckwheat = conditions: Table II, 2 WAT
Procedure, shortened: as §1

Sugar Beet = conditions: Table II, 2 WAT
Procedure, shortened: as §1

## CCCCCCCCSSN(CC#N)CP(=O)(Oc1ccccc1)Oc1ccccc1 [II, Phosphonic acid, [[(cyanomethyl)(octyldithio)-amino]methyl]-, diphenyl ester]
Velvetleaf; Table I, 4 WAT, 5.6 kg/h
  post-emergence herbicidal activity index: 1 (25-49% control)
Velvetleaf; Table I, 4 WAT, 11.2 kg/h
  post-emergence herbicidal activity index: 1 (25-49% control)
Johnsongrass; 5.6 kg/h
  post-emergence herbicidal activity index: 3 (75-99% control)
Johnsongrass; 11.2 kg/h
  post-emergence herbicidal activity index: 2 (50-74% control)
Barnyardgrass; Table I, 4 WAT, 5.6 kg/h
  post-emergence herbicidal activity index: 1 (25-49% control)
Barnyardgrass; Table I, 4 WAT, 11.2 kg/h
  post-emergence herbicidal activity index: 2 (50-74% control)
Quackgrass; 5.6 kg/h
  post-emergence herbicidal activity index: 0 (0-24% control)
Quackgrass; 11.2 kg/h
  post-emergence herbicidal activity index: 1 (25-49% control)
Canada Thistle; 5.6 kg/h
  post-emergence herbicidal activity index: 1 (25-49% control)
Canada Thistle; 11.2 kg/h
  post-emergence herbicidal activity index: 1 (25-49% control)
Morningglory; Table I, 4 WAT, 5.6 kg/h
  post-emergence herbicidal activity index: 2 (50-74% control)
Morningglory; Table I, 4 WAT, 11.2 kg/h
  post-emergence herbicidal activity index: 2 (50-74% control)
Downy Brome; Table I, 4 WAT, 5.6 kg/h
  post-emergence herbicidal activity index: 1 (25-49% control)
Downy Brome; Table I, 4 WAT, 11.2 kg/h
  post-emergence herbicidal activity index: 0 (0-24% control)
Lambsquarters; Table I, 4 WAT, 5.6 kg/h
  post-emergence herbicidal activity index: 3 (75-99% control)
Lambsquarters; Table I, 4 WAT, 11.2 kg/h
  post-emergence herbicidal activity index: 3 (75-99% control)
Yellow Nutsedge; 5.6 kg/h
  post-emergence herbicidal activity index: 2 (50-74% control)
Yellow Nutsedge; 11.2 kg/h
  post-emergence herbicidal activity index: 2 (50-74% control)
Cocklebur; Table I, 4 WAT, 5.6 kg/h
  post-emergence herbicidal activity index: 2 (50-74% control)
Cocklebur; Table I, 4 WAT, 11.2 kg/h
  post-emergence herbicidal activity index: 2 (50-74% control)
Smartweed; Table I, 4 WAT, 5.6 kg/h
  post-emergence herbicidal activity index: 0 (0-24% control)
Smartweed; Table I, 4 WAT, 11.2 kg/h
  post-emergence herbicidal activity index: 1 (25-49% control)

## COc1ccc(SSN(CC#N)CP(=O)(Oc2ccccc2)Oc2ccccc2)cc1 [III, Phosphonic acid, [[(cyanomethyl)[(4-methoxyphenyl)-dithio]amino]methyl]-, diphenyl ester]
Velvetleaf; Table I, 4 WAT, 5.6 kg/h
  post-emergence herbicidal activity index: 1 (25-49% control)
Velvetleaf; Table I, 4 WAT, 11.2 kg/h
  post-emergence herbicidal activity index: 1 (25-49% control)
Johnsongrass; 5.6 kg/h
  post-emergence herbicidal activity index: 2 (50-74% control)
Johnsongrass; 11.2 kg/h
  post-emergence herbicidal activity index: 2 (50-74% control)
Barnyardgrass; Table I, 4 WAT, 5.6 kg/h
  post-emergence herbicidal activity index: 2 (50-74% control)
Barnyardgrass; Table I, 4 WAT, 11.2 kg/h
  post-emergence herbicidal activity index: 2 (50-74% control)
Quackgrass; 5.6 kg/h
  post-emergence herbicidal activity index: 0 (0-24% control)
Quackgrass; 11.2 kg/h
  post-emergence herbicidal activity index: 1 (25-49% control)
Canada Thistle; 5.6 kg/h
  post-emergence herbicidal activity index: 2 (50-74% control)
Canada Thistle; 11.2 kg/h
  post-emergence herbicidal activity index: 2 (50-74% control)
Morningglory; Table I, 4 WAT, 5.6 kg/h
  post-emergence herbicidal activity index: 1 (25-49% control)
Morningglory; Table I, 4 WAT, 11.2 kg/h
  post-emergence herbicidal activity index: 2 (50-74% control)
Downy Brome; Table I, 4 WAT, 5.6 kg/h
  post-emergence herbicidal activity index: 0 (0-24% control)
Downy Brome; Table I, 4 WAT, 11.2 kg/h
  post-emergence herbicidal activity index: 2 (50-74% control)
Lambsquarters; Table I, 4 WAT, 5.6 kg/h
  post-emergence herbicidal activity index: 3 (75-99% control)
Lambsquarters; Table I, 4 WAT, 11.2 kg/h
  post-emergence herbicidal activity index: 4 (100% control)
Yellow Nutsedge; 5.6 kg/h
  post-emergence herbicidal activity index: 1 (25-49% control)
Yellow Nutsedge; 11.2 kg/h
  post-emergence herbicidal activity index: 2 (50-74% control)
Cocklebur; Table I, 4 WAT, 5.6 kg/h
  post-emergence herbicidal activity index: 1 (25-49% control)
Cocklebur; Table I, 4 WAT, 11.2 kg/h
  post-emergence herbicidal activity index: 2 (50-74% control)
Smartweed; Table I, 4 WAT, 11.2 kg/h
  post-emergence herbicidal activity index: 0 (0-24% control)

## N#CCN(CP(=O)(Oc1ccccc1)Oc1ccccc1)SSc1ccc(Cl)cc1 [XI]
Hemp Sesbania; 1.12 kg/h
  post-emergence herbicidal activity index: 0 (0-24% control)
Hemp Sesbania; 5.6 kg/h
  post-emergence herbicidal activity index: 1 (25-49% control)
Velvetleaf; Table I, 4 WAT, 5.6 kg/h
  post-emergence herbicidal activity index: 0 (0-24% control)
Velvetleaf; Table I, 4 WAT, 11.2 kg/h
  post-emergence herbicidal activity index: 2 (50-74% control)
Velvetleaf; Table II, 2 WAT, 1.12 kg/h
  post-emergence herbicidal activity index: 0 (0-24% control)
Velvetleaf; Table II, 2 WAT, 5.6 kg/h
  post-emergence herbicidal activity index: 3 (75-99% control)
Soybean; 1.12 kg/h
  post-emergence herbicidal activity index: 0 (0-24% control)
Soybean; 5.6 kg/h
  post-emergence herbicidal activity index: 1 (25-49% control)
Johnsongrass; 5.6 kg/h
  post-emergence herbicidal activity index: 0 (0-24% control)
Johnsongrass; 11.2 kg/h
  post-emergence herbicidal activity index: 2 (50-74% control)
Barnyardgrass; Table I, 4 WAT, 5.6 kg/h
  post-emergence herbicidal activity index: 0 (0-24% control)
Barnyardgrass; Table I, 4 WAT, 11.2 kg/h
  post-emergence herbicidal activity index: 3 (75-99% control)
Barnyardgrass; Table II, 2 WAT, 1.12 kg/h
  post-emergence herbicidal activity index: 0 (0-24% control)
Barnyardgrass; Table II, 2 WAT, 5.6 kg/h
  post-emergence herbicidal activity index: 1 (25-49% control)
Wheat; 1.12 kg/h
  post-emergence herbicidal activity index: 0 (0-24% control)
Wheat; 5.6 kg/h
  post-emergence herbicidal activity index: 2 (50-74% control)
Quackgrass; 5.6 kg/h
  post-emergence herbicidal activity index: 0 (0-24% control)
Quackgrass; 11.2 kg/h
  post-emergence herbicidal activity index: 2 (50-74% control)
Sorghum; 1.12 kg/h
  post-emergence herbicidal activity index: 0 (0-24% control)
Sorghum; 5.6 kg/h
  post-emergence herbicidal activity index: 1 (25-49% control)
Crabgrass; 1.12 kg/h
  post-emergence herbicidal activity index: 0 (0-24% control)
Crabgrass; 5.6 kg/h
  post-emergence herbicidal activity index: 3 (75-99% control)
Morningglory; Table I, 4 WAT, 5.6 kg/h
  post-emergence herbicidal activity index: 0 (0-24% control)
Morningglory; Table I, 4 WAT, 11.2 kg/h
  post-emergence herbicidal activity index: 1 (25-49% control)
Morningglory; Table II, 2 WAT, 1.12 kg/h
  post-emergence herbicidal activity index: 0 (0-24% control)
Morningglory; Table II, 2 WAT, 5.6 kg/h
  post-emergence herbicidal activity index: 1 (25-49% control)
Panicum Spp; 1.12 kg/h
  post-emergence herbicidal activity index: 0 (0-24% control)
Panicum Spp; 5.6 kg/h
  post-emergence herbicidal activity index: 1 (25-49% control)
Rice; 1.12 kg/h
  post-emergence herbicidal activity index: 0 (0-24% control)
Rice; 5.6 kg/h
  post-emergence herbicidal activity index: 1 (25-49% control)
Downy Brome; Table I, 4 WAT, 5.6 kg/h
  post-emergence herbicidal activity index: 0 (0-24% control)
Downy Brome; Table I, 4 WAT, 11.2 kg/h
  post-emergence herbicidal activity index: 1 (25-49% control)
Downy Brome; Table II, 2 WAT, 1.12 kg/h
  post-emergence herbicidal activity index: 0 (0-24% control)
Downy Brome; Table II, 2 WAT, 5.6 kg/h
  post-emergence herbicidal activity index: 1 (25-49% control)
Lambsquarters; Table I, 4 WAT, 5.6 kg/h
  post-emergence herbicidal activity index: 0 (0-24% control)
Lambsquarters; Table I, 4 WAT, 11.2 kg/h
  post-emergence herbicidal activity index: 4 (100% control)
Lambsquarters; Table II, 2 WAT, 1.12 kg/h
  post-emergence herbicidal activity index: 0 (0-24% control)
Lambsquarters; Table II, 2 WAT, 5.6 kg/h
  post-emergence herbicidal activity index: 3 (75-99% control)
Yellow Nutsedge; 5.6 kg/h
  post-emergence herbicidal activity index: 0 (0-24% control)
Yellow Nutsedge; 11.2 kg/h
  post-emergence herbicidal activity index: 1 (25-49% control)
Wild Buckwheat; 1.12 kg/h
  post-emergence herbicidal activity index: 0 (0-24% control)
Wild Buckwheat; 5.6 kg/h
  post-emergence herbicidal activity index: 3 (75-99% control)
Sugar Beet; 1.12 kg/h
  post-emergence herbicidal activity index: 1 (25-49% control)
Sugar Beet; 5.6 kg/h
  post-emergence herbicidal activity index: 3 (75-99% control)
Cocklebur; Table I, 4 WAT, 5.6 kg/h
  post-emergence herbicidal activity index: 0 (0-24% control)
Cocklebur; Table I, 4 WAT, 11.2 kg/h
  post-emergence herbicidal activity index: 3 (75-99% control)
Cocklebur; Table II, 2 WAT, 1.12 kg/h
  post-emergence herbicidal activity index: 0 (0-24% control)
Cocklebur; Table II, 2 WAT, 5.6 kg/h
  post-emergence herbicidal activity index: 3 (75-99% control)
Smartweed; Table I, 4 WAT, 5.6 kg/h
  post-emergence herbicidal activity index: 0 (0-24% control)
Smartweed; Table I, 4 WAT, 11.2 kg/h
  post-emergence herbicidal activity index: 2 (50-74% control)
Smartweed; Table II, 2 WAT, 1.12 kg/h
  post-emergence herbicidal activity index: 0 (0-24% control)
Smartweed; Table II, 2 WAT, 5.6 kg/h
  post-emergence herbicidal activity index: 1 (25-49% control)
